# Data as given in patent US20230407373A1 (priority 2020, published 2023).
# Where two headings read alike, the source gives them in different places.
# What was measured:
# Assay type in all cases: binding
# [1] = system: SARS-CoV-2 gRNA; conditions: for target (unweighted spectral count in RNP capture): Probe I capture, LC-MS/MS LFQ; for background (unweighted spectral count in control): no-probe control pull-down, used as background for Probe I; for target (unweighted spectral count of the protein in the RNP capture): LC-MS/MS, Probe I sample (first 199 lines of Table 2)
# [2] = system: SARS-CoV-2 gRNA and sgRNAs; conditions: for target (unweighted spectral count in RNP capture): Probe II capture, LC-MS/MS LFQ; for background (unweighted spectral count in control): no-probe control pull-down, used as background for Probe II
# [3] = system: HCoV-OC43 gRNA and sgRNA; conditions: for target (unweighted spectral count, OC43 Probe II capture) / target (unweighted spectral count): tested against no-probe control; for target (unweighted spectral count, OC43 Probe II capture): FDR<10%; for target (spectral count) / background (spectral count): type s_36_m, Probe II; for target (spectral count): HCoV-OC43-infected HCT-8 cells; for background (spectral count): uninfected-probe control; for target (unweighted spectral count): OC43 Probe II, infected cells; for target (unweighted spectral count, OC43 Probe II) / background (unweighted spectral count, no-probe control): type n_48_v, 48 hpi; for target (unweighted spectral count, OC43 Probe II): OC43 Probe II capture on infected cells; for background (unweighted spectral count, no-probe control): no-probe control on infected cells
# [4] = system: gRNA of HCoV-OC43; conditions: for target (spectral count) / background (spectral count): type g_36_m, 36 hpi, Probe I; for target (spectral count): HCoV-OC43-infected HCT-8 cells; for background (spectral count): uninfected-probe control
# [5] = type n_48_v: 48 hours post-infection, infected cells, OC43 Probe I, unweighted spectral count
# [6] = type n_48_v: 48 hours post-infection, no-probe control on infected cells
substance,measurement,setting,value
YP_009725304.1,target (unweighted spectral count in RNP capture),[1],5
same,background (unweighted spectral count in control),[1],1
"EIF4G1: host protein, UniProt Q04637",target (unweighted spectral count in RNP capture),[2],18
same,background (unweighted spectral count in control),[2],1
same,"target (unweighted spectral count, OC43 Probe II capture)","[3]; 24 hpi, type n_24_v",4
same,"target (unweighted spectral count, OC43 Probe II capture)","[3]; 36 hpi, type n_36_v",7
same,target (spectral count),[3]; 36 hpi,7
same,background (spectral count),[3]; 36 hpi,1
"SQSTM1: host protein, UniProt Q13501",target (unweighted spectral count in RNP capture),[2],19
same,background (unweighted spectral count in control),[2],1
same,target (spectral count),[4],7
same,background (spectral count),[4],1
"CCAR2: host protein, UniProt Q8N163",target (spectral count),[4],20
same,background (spectral count),[4],1
same,"target (spectral count, OC43 Probe I RNP capture)",[4]; [5],23
same,"background (spectral count, no-probe control)",[4]; [6],1
same,"target (unweighted spectral count, OC43 Probe II capture)","[3]; 36 hpi, type n_36_v",12
same,target (unweighted spectral count),[3]; 24 hpi (type n_24_v),8
same,"target (unweighted spectral count, OC43 Probe II)",[3],20
same,"background (unweighted spectral count, no-probe control)",[3],1
same,target (spectral count),[3]; 36 hpi,12
same,background (spectral count),[3]; 36 hpi,1
NSP8,"background (spectral count, no-probe control)",[4],1
same,"target (spectral count, OC43 Probe I RNP capture)",[4],5
ZFR,"target (unweighted spectral count, OC43 Probe II capture)","[3]; 24 hpi, type n_24_v",4
same,"target (unweighted spectral count, OC43 Probe II)",[3],6
same,"background (unweighted spectral count, no-probe control)",[3],1
PRPF8,"target (unweighted spectral count, OC43 Probe II capture)","[3]; 24 hpi, type n_24_v",7
same,"target (unweighted spectral count, OC43 Probe II)",[3],20
same,"background (unweighted spectral count, no-probe control)",[3],5
ENO1,target (unweighted spectral count in RNP capture),[2],22
same,background (unweighted spectral count in control),[2],4
PLEC,"target (unweighted spectral count, OC43 Probe II)",[3],6
same,"background (unweighted spectral count, no-probe control)",[3],1
KHDR ? S1,"target (spectral count, OC43 Probe I RNP capture)",[4]; [5],18
same,"background (spectral count, no-probe control)",[4]; [6],1
AKAP8,"target (unweighted spectral count, OC43 Probe II capture)","[3]; 36 hpi, type n_36_v",4
H2AFY,target (unweighted spectral count),[3]; 12 hpi (type n_12_v),4
FXR2,target (unweighted spectral count in RNP capture),[2],23
same,background (unweighted spectral count in control),[2],1
same,"target (spectral count, OC43 Probe I RNP capture)",[4]; [5],7
same,"background (spectral count, no-probe control)",[4]; [6],1
same,"target (unweighted spectral count, OC43 Probe II capture)","[3]; 36 hpi, type n_36_v",5
same,"target (unweighted spectral count, OC43 Probe II)",[3],7
same,"background (unweighted spectral count, no-probe control)",[3],1
KHDRB51,target (unweighted spectral count in RNP capture),[2],13
same,background (unweighted spectral count in control),[2],1
TCP1,"target (unweighted spectral count, OC43 Probe II capture)","[3]; 36 hpi, type n_36_v",4
MPG,target (unweighted spectral count),[3]; 12 hpi (type n_12_v),4
DDX54,"target (unweighted spectral count, OC43 Probe II capture)","[3]; 36 hpi, type n_36_v",5
GAPDM,target (unweighted spectral count of the protein in the RNP capture),[1],7
NUMA1,target (unweighted spectral count),[3]; 12 hpi (type n_12_v),5
"YBX2: host protein, UniProt Q9Y2T7","target (unweighted spectral count, OC43 Probe II capture)","[3]; 36 hpi, type n_36_v",9
same,"target (unweighted spectral count, OC43 Probe II)",[3],8
same,"background (unweighted spectral count, no-probe control)",[3],1
same,target (spectral count),[3]; 36 hpi,9
same,background (spectral count),[3]; 36 hpi,1
"HELZ2: host protein, UniProt Q9BYK8",target (spectral count),[4],11
same,background (spectral count),[4],1
same,"target (spectral count, OC43 Probe I RNP capture)",[4]; [5],8
same,"background (spectral count, no-probe control)",[4]; [6],1
same,"target (unweighted spectral count, OC43 Probe II capture)","[3]; 36 hpi, type n_36_v",16
same,"target (unweighted spectral count, OC43 Probe II)",[3],20
same,"background (unweighted spectral count, no-probe control)",[3],1
same,target (spectral count),[3]; 36 hpi,16
same,background (spectral count),[3]; 36 hpi,1
EZR,target (unweighted spectral count in RNP capture),[1],5
same,background (unweighted spectral count in control),[1],1
DDX39B,"target (spectral count, OC43 Probe I RNP capture)",[4]; [5],5
same,"background (spectral count, no-probe control)",[4]; [6],1
same,"target (unweighted spectral count, OC43 Probe II)",[3],6
same,"background (unweighted spectral count, no-probe control)",[3],1
USP10,"target (spectral count, OC43 Probe I RNP capture)",[4]; [5],6
same,"background (spectral count, no-probe control)",[4]; [6],1
same,"target (unweighted spectral count, OC43 Probe II capture)","[3]; 24 hpi, type n_24_v",5
same,"target (unweighted spectral count, OC43 Probe II capture)","[3]; 36 hpi, type n_36_v",4
same,"target (unweighted spectral count, OC43 Probe II)",[3],7
same,"background (unweighted spectral count, no-probe control)",[3],1
KHORBS1,target (unweighted spectral count of the protein in the RNP capture),[1],19
ZC3H7B,target (unweighted spectral count),[3]; 24 hpi (type n_24_v),6
ESYT1,"target (unweighted spectral count, OC43 Probe II capture)","[3]; 36 hpi, type n_36_v",4
LGALS3,"target (unweighted spectral count, OC43 Probe II)",[3],5
same,"background (unweighted spectral count, no-probe control)",[3],1
